# Several values for one entry are separate records, joined by “and”; a condition that tells them apart may be missing. Identical values can stand only once.
# Tests used:
# [1] = system: MRSA 01, MRSA 15 (fusidic acid-resistant), MRSA 16 (mupirocin-resistant); test: Mutational frequency evaluation (spontaneous single-step mutations), Example 1; format: cell-based, Staphylococcus aureus; details: at MIC×1 (Example 1)
# [2] = system: S. aureus; test: MIC assay according to CLSI criteria, Example 2, S. aureus strains; format: cell-based, Staphylococcus aureus; details: Staphylococcus aureus, read-out: MIC
# From the text: Chosen for its relevance regarding bacterial skin infections, the methicillin-resistant S. aureus (MRSA) 01 strain was used as the primary test microorganism. This strain is a community-acquired MRSA clinical isolate of USA 300 type, from a skin abscess.
# Two-hundred-four other MRSA and methicillin-sensitive S. aureus strains, and 4 Streptococcus pyogenes strains, were also included in the study. These covered fusidic acid- and mupirocin-resistant strains, these two types of resistance being of clinical relevance.
# Strains were conserved in Luria Bertani (LB) Broth (S. aureus) or Brain Heart Infusion (BHI) (S. pyogenes) supplemented with glycerol 15% (v/v) at −80° C., and reactivated by isolation on LB (S. aureus) or BHI (S. pyogenes) agar plates. Strains were cultivated in Mueller Hinton (MH) Broth-cation adjusted (S. aureus) or BHI (S. pyogenes). All strains were cultivated aerobically (microaerobically for S. pyogenes strains) at 37° C.
# (§1) Bacterial cultures were stopped in their exponential growth phase and plates were inoculated with the approximate concentration of 5×10^5 cells per well. Plates were incubated at 37° C. for 18 hours (S. aureus) or 24 hours (S. pyogenes). Optical density at a wavelength of 600 nm was measured at the end of the incubation time.
# [3] = published literature values; cited from earlier work
# [4] = system: S. aureus; test: Minimum inhibitory concentration (MIC) assay, Example 1, S. aureus strains; format: cell-based; details: Staphylococcus aureus, MRSA, read-out: Mic100 S. aureus
# From the text: The methicillin-resistant S. aureus (MRSA) 01 strain was used as the primary test microorganism as a representative bacteria commonly found in skin infections. This strain is a community-acquired MRSA clinical isolate of USA 300 type, from a skin abscess.
# (§2) Twenty-one other MRSA and methicillin-sensitive S. aureus strains, and 4 Streptococcus pyogenes strains, were also included in the study (Table 2). These covered fusidic acid- and mupirocin-resistant strains, these two types of resistance being of clinical relevance.
# (§3) Strains were conserved in Luria Bertani (LB) Broth (S. aureus) or Brain Heart Infusion (BHI) (S. pyogenes) supplemented with glycerol 15% (v/v) at −80° C., and reactivated by isolation on LB (S. aureus) or BHI (S. pyogenes) agar plates. Strains were cultivated in Mueller Hinton (MH) Broth-cation adjusted (S. aureus) supplemented with lysed horse blood 2.5% (v/v) (S. pyogenes). All strains were cultivated at 37° C., aerobically for S. aureus strains.
# as §1, with “10^3” for “5×10^5”, “time. […] Experiments were performed at least as triplicate biological replicates with all strains.” for “time.”
# [5] = system: S. pyogenes; test: Minimum inhibitory concentration (MIC) assay, Example 1, S. pyogenes strains; format: cell-based; details: Streptococcus pyogenes, read-out: Mic100 S. pyogenes
# Protocol: as §2, §3
# as §1, with “10^3” for “5×10^5”, “time. […] Experiments were performed at least as triplicate biological replicates with all strains.” for “time.”
compound,measurement,setting,value
"Cc1cc(C(C#N)c2ccc(Cl)cc2)c(Cl)cc1NC(=O)c1cc(I)cc(I)c1O (stereo not drawn) [Closantel, closantel]",mutational frequency,[1],2×10^−8
"C/C(=C\C(=O)OCCCCCCCCC(=O)O)C[C@@H]1OC[C@H](C[C@@H]2O[C@H]2[C@@H](C)[C@H](C)O)[C@@H](O)[C@H]1O [Mupirocin, mupirocin]",MIC,"[2]; MRSA, strain MRSA 01",0.25 µg/mL
same,MIC,"[2]; MRSA, strain MRSA 02",0.25 µg/mL
same,MIC,"[2]; MRSA, strain MRSA 03",0.25 µg/mL
same,MIC,"[2]; MRSA, strain MRSA 04",0.25 µg/mL
same,MIC,"[2]; MRSA, strain MRSA 05",0.125 µg/mL
same,MIC,"[2]; MRSA, strain MRSA 06",0.25 µg/mL
same,MIC,"[2]; MRSA, strain MRSA 07",0.25 µg/mL
same,MIC,"[2]; MRSA, strain MRSA 09",0.25 µg/mL
same,MIC,"[2]; MRSA, strain MRSA 10",0.25 µg/mL
same,MIC,"[2]; MRSA, strain MRSA 11",0.5 µg/mL
same,MIC,"[2]; MRSA, strain MRSA 12",0.125 µg/mL
same,MIC,"[2]; MRSA, strain MRSA 13",0.25 µg/mL
same,MIC,"[2]; MRSA, strain MRSA 14",0.125 µg/mL
same,MIC,"[2]; MRSA, strain MRSA 15",0.25 µg/mL
same,MIC,"[2]; MRSA, strain MRSA 18",0.125 µg/mL
same,MIC,"[2]; MRSA, strain MRSA 19",0.25 µg/mL
same,MIC,"[2]; MRSA, strain MRSA 20",0.25 µg/mL
same,MIC,"[2]; MRSA, strain MRSA 22",0.25 µg/mL
same,MIC,"[2]; MRSA, strain MRSA 23",0.25 µg/mL
same,MIC,"[2]; MRSA, strain MRSA 24",0.25 µg/mL
same,MIC,"[2]; MRSA, strain MRSA 25",0.25 µg/mL
same,MIC,"[2]; MRSA, strain MRSA 26",0.5 µg/mL
same,MIC,"[2]; MRSA, strain MRSA 27",0.25 µg/mL
same,MIC,"[2]; MRSA, strain MRSA 28",0.5 µg/mL
same,MIC,"[2]; MRSA, strain MRSA 29",0.25 µg/mL
same,MIC,"[2]; MRSA, strain MRSA 31",0.25 µg/mL
same,MIC,"[2]; MRSA, strain MRSA 32",0.25 µg/mL
same,MIC,"[2]; MRSA, strain MRSA 33",0.25 µg/mL
same,MIC,"[2]; MRSA, strain MRSA 34",0.25 µg/mL
same,MIC,"[2]; MRSA, strain MRSA 35",0.5 µg/mL
same,MIC,"[2]; MRSA, strain MRSA 36",0.25 µg/mL
same,MIC,"[2]; MRSA, strain MRSA 37",0.25 µg/mL
same,MIC,"[2]; MRSA, strain MRSA 39",0.25 µg/mL
same,MIC,"[2]; MRSA, strain MRSA 40",0.25 µg/mL
same,MIC,"[2]; MRSA, strain MRSA 75",0.5 µg/mL
same,MIC,"[2]; MRSA, strain MRSA 85",0.25 µg/mL
same,MIC,"[2]; MRSA, strain MRSA 86",0.25 µg/mL
same,MIC,"[2]; MRSA, strain MRSA 87",0.25 µg/mL
same,MIC,"[2]; MRSA, strain MRSA 88",0.25 µg/mL
same,MIC,"[2]; MRSA, strain MRSA 89",0.25 µg/mL
same,MIC,"[2]; MRSA, strain MRSA 90",0.25 µg/mL
same,MIC,"[2]; MRSA, strain MRSA 91",0.25 µg/mL
same,MIC,"[2]; MRSA, strain MRSA 92",0.25 µg/mL
same,MIC,"[2]; MRSA, strain MRSA 93",0.25 µg/mL
same,MIC,"[2]; MRSA, strain MRSA 94",0.25 µg/mL
same,MIC,"[2]; MRSA, strain MRSA 95",0.25 µg/mL
same,MIC,"[2]; MRSA, strain MRSA 96",0.125 µg/mL
same,MIC,"[2]; MRSA, strain MRSA 97",0.25 µg/mL
same,MIC,"[2]; MRSA, strain MRSA 98",0.5 µg/mL
same,MIC,"[2]; MRSA, strain MRSA 99",0.5 µg/mL
same,MIC,"[2]; MRSA, strain MRSA 100",0.5 µg/mL
same,MIC,"[2]; MRSA, strain MRSA 101",0.25 µg/mL
same,MIC,"[2]; MRSA, strain MRSA 102",0.25 µg/mL
same,MIC,"[2]; MRSA, strain MRSA 103",0.25 µg/mL
same,MIC,"[2]; MRSA, strain MRSA 104",0.25 µg/mL
same,MIC,"[2]; MRSA, strain MRSA 105",0.25 µg/mL
same,MIC,"[2]; MRSA, strain MRSA 106",0.25 µg/mL
same,MIC,"[2]; MRSA, strain MRSA 107",0.25 µg/mL
same,MIC,"[2]; MRSA, strain MRSA 108",0.25 µg/mL
same,MIC,"[2]; MRSA, strain MRSA 109",0.25 µg/mL
same,MIC,"[2]; MRSA, strain MRSA 110",0.125 µg/mL
same,MIC,"[2]; MRSA, strain MRSA 111",0.25 µg/mL
same,MIC,"[2]; MRSA, strain MRSA 112",0.25 µg/mL
same,MIC,"[2]; MRSA, strain MRSA 113",0.25 µg/mL
same,MIC,"[2]; MSSA, strain MSSA 01",0.125 µg/mL
same,MIC,"[2]; MSSA, strain MSSA 02",0.125 µg/mL
same,MIC,"[2]; NEWMAN, strain Newman",0.25 µg/mL
"O=C(Nc1cc(Cl)cc(Cl)c1O)c1c(O)c(Cl)cc(Cl)c1Cl [Oxyclozanide, oxyclozanide]",LD50 rats p.o,[3],980 to 3500 mg/kg
"O=C(Nc1ccc(Oc2ccc(Cl)cc2)c(Cl)c1)c1cc(I)cc(I)c1O [Rafoxanide, rafoxanide]",MIC,[4],0.8 µg/mL and 1.25 µM
same,MIC,[5],6.4 µg/mL and 10 µM
same,mutational frequency,[1],5×10^−9
